Measurements reported in ChEMBL document CHEMBL1201862, “PubChem BioAssay data set” (2004).
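Grown in 96-well plates, cells were treated for 48 hours with each compound at five concentrations. Insufficient inhibition: endpoint recorded as highest concentration tested. Here, GI50 denotes the concentration required for 50% inhibition of growth.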 The source made the active and inactive calls. No stated cut-off is given here; in the data, active = GI50 up to about 1.1 µM and inactive = higher.

How the values were obtained:
Assay in all cases: NCI-60 cell line screen, 48 h
786-0 = tested on: 786-0
A498 = tested on: A498
A549 = tested on: A549
ACHN = tested on: ACHN
BT-549 = tested on: BT-549
COLO 205 = tested on: COLO 205
DU-145 = tested on: DU-145
EKVX = tested on: EKVX
HCC 2998 = tested on: HCC 2998
HCT-116 = tested on: HCT-116
HCT-15 = tested on: HCT-15
HL-60 = tested on: HL-60
HOP-62 = tested on: HOP-62
HOP-92 = tested on: HOP-92
HT-29 = tested on: HT-29
Hs-578T = tested on: Hs-578T
IGROV-1 = tested on: IGROV-1
K562 = tested on: K562
KM12 = tested on: KM12
LOX IMVI = tested on: LOX IMVI
M14 = tested on: M14
MCF7 = tested on: MCF7
MDA-MB-231 = tested on: MDA-MB-231
MDA-MB-435 = tested on: MDA-MB-435
MDA-N = tested on: MDA-N
MOLT-4 = tested on: MOLT-4
Malme-3M = tested on: Malme-3M
NCI-H226 = tested on: NCI-H226
NCI-H23 = tested on: NCI-H23
NCI-H460 = tested on: NCI-H460
NCI-H522 = tested on: NCI-H522
NCI/ADR-RES = tested on: NCI/ADR-RES
OVCAR-3 = tested on: OVCAR-3
OVCAR-4 = tested on: OVCAR-4
OVCAR-5 = tested on: OVCAR-5
OVCAR-8 = tested on: OVCAR-8
PC-3 = tested on: PC-3
RPMI-8226 = tested on: RPMI-8226
RXF 393 = tested on: RXF 393
SF-268 = tested on: SF-268
SF-295 = tested on: SF-295
SF-539 = tested on: SF-539
SK-MEL-28 = tested on: SK-MEL-28
SK-MEL-2 = tested on: SK-MEL-2
SK-MEL-5 = tested on: SK-MEL-5
SK-OV-3 = tested on: SK-OV-3
SN12C = tested on: SN12C
SNB-19 = tested on: SNB-19
SNB-75 = tested on: SNB-75
SR = tested on: SR
SW-620 = tested on: SW-620
T47D = tested on: T47D
TK-10 = tested on: TK-10
U-251 = tested on: U-251
UACC-257 = tested on: UACC-257
UACC-62 = tested on: UACC-62
UO-31 = tested on: UO-31

Compound: O=C(O)[C@@H]1CCCN1 [PROLINE]
- GI50 (786-0): > 100 µM (inactive)
- GI50 (A498): > 100 µM (inactive)
- GI50 (A549): > 100 µM (inactive)
- GI50 (ACHN): > 100 µM (inactive)
- GI50 (BT-549): > 100 µM (inactive)
- GI50 (COLO 205): > 100 µM (inactive)
- GI50 (DU-145): > 100 µM (inactive)
- GI50 (EKVX): > 100 µM (inactive)
- GI50 (HCC 2998): > 100 µM (inactive)
- GI50 (HCT-116): > 100 µM (inactive)
- GI50 (HCT-15): > 100 µM
- GI50 (HL-60): > 100 µM (inactive)
- GI50 (HOP-62): > 100 µM (inactive)
- GI50 (HOP-92): > 100 µM (inactive)
- GI50 (HT-29): > 100 µM (inactive)
- GI50 (Hs-578T): > 100 µM (inactive)
- GI50 (IGROV-1): > 100 µM (inactive)
- GI50 (K562): > 100 µM (inactive)
- GI50 (KM12): > 100 µM (inactive)
- GI50 (LOX IMVI): > 100 µM (inactive)
- GI50 (M14): > 100 µM (inactive)
- GI50 (MCF7): > 100 µM (inactive)
- GI50 (MDA-MB-231): > 100 µM (inactive)
- GI50 (MDA-MB-435): > 100 µM (inactive)
- GI50 (MDA-N): > 100 µM (inactive)
- GI50 (MOLT-4): > 100 µM (inactive)
- GI50 (Malme-3M): > 100 µM (inactive)
- GI50 (NCI-H226): > 100 µM (inactive)
- GI50 (NCI-H23): > 100 µM (inactive)
- GI50 (NCI-H460): > 100 µM (inactive)
- GI50 (NCI-H522): > 100 µM (inactive)
- GI50 (NCI/ADR-RES): > 100 µM (inactive)
- GI50 (OVCAR-3): > 100 µM (inactive)
- GI50 (OVCAR-4): > 100 µM (inactive)
- GI50 (OVCAR-5): > 100 µM (inactive)
- GI50 (OVCAR-8): > 100 µM (inactive)
- GI50 (PC-3): > 100 µM (inactive)
- GI50 (RPMI-8226): > 100 µM (inactive)
- GI50 (RXF 393): > 100 µM (inactive)
- GI50 (SF-268): > 100 µM (inactive)
- GI50 (SF-295): > 100 µM (inactive)
- GI50 (SF-539): > 100 µM (inactive)
- GI50 (SK-MEL-28): > 100 µM (inactive)
- GI50 (SK-MEL-2): > 100 µM (inactive)
- GI50 (SK-MEL-5): > 100 µM (inactive)
- GI50 (SK-OV-3): > 100 µM (inactive)
- GI50 (SN12C): > 100 µM (inactive)
- GI50 (SNB-19): > 100 µM (inactive)
- GI50 (SNB-75): 57.4 µM (inactive)
- GI50 (SR): > 100 µM (inactive)
- GI50 (SW-620): > 100 µM (inactive)
- GI50 (T47D): > 100 µM (inactive)
- GI50 (TK-10): > 100 µM (inactive)
- GI50 (U-251): > 100 µM (inactive)
- GI50 (UACC-257): > 100 µM (inactive)
- GI50 (UACC-62): > 100 µM (inactive)
- GI50 (UO-31): > 100 µM (inactive)
